Laboratory results as given in patent US20120065103A1, “Prolyl Endopeptidase Probes” (priority 2010, published 2012).

What was measured:
[1] = system: BALF proteases (prolyl endopeptidase activity); assay: IQFP protease substrate profiling of BALF from infected and uninfected guinea pigs (Table 1); assay type: biochemical, guinea pig; conditions: for FI infected / Fold infected: infected guinea pig BALF; for Fold enhancement: infected vs uninfected guinea pig BALF; for FI uninfected / Fold uninfected: uninfected guinea pig BALF
Source text: Methods: The substrate specificity of AF in vitro culture supernatant was profiled with a combinatorial IQFP library in comparison with human serum to identify fungus-specific substrates. An established guinea pig model of IA was used to collect BALF during active disease for in vivo protease substrate profiling.
(§1) Methods: Guinea pig inhalation model comprises neutropenia by cortisone acetate and cyclophosphamide (days −2 and +3), 1.2×10^8 conidia/mL nebulized AF in inhalation chamber, and serum and BALF obtained at predetermined time points; Vallor et al. Antimicrob. Ag. Chemother. 2008, 52.

[2] = system: Aspergillus fumigatus infected and uninfected guinea pig broncheoaveolar lavage fluid; assay: Screening probes against Aspergillus fumigatus infected and uninfected guinea pig BALF (Table 2); assay type: biochemical
Source text: as §1
Table 2 Legend. Variable region (Xaa—Yaa—Zaa) of the top 6 peptide probes are all listed in single amino acid code; AF293 and CEA10 are the two strains of Aspergillus fumigatus infected guinea pig BALF samples screened in this study.
N stands for number of guinea pig BALF samples screened against the given peptide probe. Guinea pig infected and uninfected samples with very low background (t=0 hour) and end point values (t=6 hour) (i.e., no greater than 100 units difference between t=0 hour and t=6 hour) were not selected for the statistical calculations.
Mean fold change values is the average of fluorescence fold change calculated for each guinea pig sample screened against respective peptide probe. Fluorescence fold change values are calculated according to the formula:
Fold Change=Fluorescence measured at time t=6 hour/Fluorescence measured at time t=0 hour.
* Fold change values for these peptide probes were calculated at time t=3 hour as the end point value.
SD corresponds to standard deviation calculated for the given probe screened against the respective BALF sample.
Percentage fluorescence efficiency (% FE) is calculated for each probe as follows, % FE=100 * [(Fold changeInfected BALF-Fold changeUninfected BALF)/Fold changeuninfected BALF] Fold change values are all the mean fold change values.
P values are calculated with two tailed student t-test with two sample unequal variance for each peptide probe screened against respective infected and uninfected BALF samples. […]

[3] = strain AF293, t=6 hour vs t=0 hour
[4] = strain AF293 series, t=6 hour vs t=0 hour
[5] = strain CEA10, t=6 hour vs t=0 hour
[6] = strain CEA10 series, t=6 hour vs t=0 hour
[7] = strain AF293, end point t=3 hour
[8] = strain AF293, end point t=3 hour vs t=0 hour
[9] = strain AF293 series, end point t=3 hour vs t=0 hour
[10] = strain CEA10, end point t=3 hour
[11] = strain CEA10, end point t=3 hour vs t=0 hour
[12] = strain CEA10 series, end point t=3 hour vs t=0 hour

Substance | FI infected [1] | Fold infected [1] | Fold enhancement [1] | FI uninfected [1] | Fold uninfected [1] | other results
MeOCGly-G-G-P-A/V-N/Q-G-G-Dap(Dnp)-K-K | 325 | 2.18 | 2.13 | 188 | 1.02 | 
MeOCGly-G-G-P-A/V-P-G-G-Dap(Dnp)-K-K | 488 | 2.85 | 2.62 | 234 | 1.09 | 
MeOCGly-G-G-P-D/E-K/R-G-G-Dap(Dnp)-K-K | 161 | 1.64 | 2.02 | 118 | 0.81 | 
MeOCGly-G-G-P-D/E-P-G-G-Dap(Dnp)-K-K | 349 | 2.3 | 2.31 | 213 | 1 | 
MeOCGly-G-G-P-F/Y-A/V-G-G-Dap(Dnp)-K-K | 493 | 3.06 | 2.04 | 294 | 1.5 | 
MeOCGly-G-G-P-F/Y-K/R-G-G-Dap(Dnp)-K-K | 238 | 2.09 | 2.06 | 151 | 1.01 | 
MeOCGly-G-G-P-F/Y-N/Q-G-G-Dap(Dnp)-K-K | 286 | 2.8 | 2.15 | 154 | 1.31 | 
MeOCGly-G-G-P-F/Y-P-G-G-Dap(Dnp)-K-K | 424 | 4.71 | 4.07 | 124 | 1.16 | 
MeOCGly-G-G-P-I/L-P-G-G-Dap(Dnp)-K-K | 474 | 2.74 | 2.21 | 223 | 1.24 | 
MeOCGly-G-G-P-K/R-P-G-G-Dap(Dnp)-K-K | 498 | 2.88 | 2.37 | 213 | 1.22 | 
MeOCGly-G-G-P-N/Q-A/V-G-G-Dap(Dnp)-K-K | 394 | 4.02 | 3.33 | 151 | 1.21 | 
MeOCGly-G-G-P-N/Q-P-G-G-Dap(Dnp)-K-K | 598 | 3.93 | 2.76 | 261 | 1.43 | 
MeOCGly-G-G-P-S/T-A/V-G-G-Dap(Dnp)-K-K | 467 | 4.28 | 2.39 | 176 | 1.8 | 
MeOCGly-G-G-P-S/T-F/Y-G-G-Dap(Dnp)-K-K | 397 | 3.31 | 3.08 | 146 | 1.07 | 
MeOCGly-G-G-P-S/T-P-G-G-Dap(Dnp)-K-K | 665 | 3.63 | 2.81 | 277 | 1.29 | 
MeOCGly-GGPFPGG Dap(DNP)KK-NH2 |  |  |  |  |  | % FE (percentage fluorescence efficiency) ([2]; strain AF293, t=6 hour): 227.09%; Mean Fold change, Infected BALF [2, 3]: 6.58; Mean Fold Change, Uninfected BALF [2, 4]: 2.01; % FE (percentage fluorescence efficiency) ([2]; strain CEA10, t=6 hour): 326.24%; Mean Fold change, Infected BALF [2, 5]: 12.44; Mean Fold Change, Uninfected BALF [2, 6]: 2.92
MeOCGly-GGPHPGG Dap(DNP)KK-NH2 |  |  |  |  |  | % FE (percentage fluorescence efficiency) ([2]; strain AF293, t=6 hour): 219.69%; Mean Fold change, Infected BALF [2, 3]: 4.47; Mean Fold Change, Uninfected BALF [2, 4]: 1.40; % FE (percentage fluorescence efficiency) ([2]; strain CEA10, t=6 hour): 217.59%; Mean Fold change, Infected BALF [2, 5]: 10.61; Mean Fold Change, Uninfected BALF [2, 6]: 3.34
MeOCGly-GGPNPGG Dap(DNP)KK-NH2 |  |  |  |  |  | % FE (percentage fluorescence efficiency) [2, 7]: 274.00%; Mean Fold change, Infected BALF [2, 8]: 5.68; Mean Fold Change, Uninfected BALF [2, 9]: 1.52; % FE (percentage fluorescence efficiency) [2, 10]: 252.39%; Mean Fold change, Infected BALF [2, 11]: 13.68; Mean Fold Change, Uninfected BALF [2, 12]: 3.88
MeOCGly-GGPNPNPGG Dap(DNP)KK-NH2 |  |  |  |  |  | % FE (percentage fluorescence efficiency) ([2]; strain AF293, t=6 hour): 355.02%; Mean Fold change, Infected BALF [2, 3]: 13.47; Mean Fold Change, Uninfected BALF [2, 4]: 2.96; % FE (percentage fluorescence efficiency) ([2]; strain CEA10, t=6 hour): 111.20%; Mean Fold change, Infected BALF [2, 5]: 8.72; Mean Fold Change, Uninfected BALF [2, 6]: 4.13
MeOCGly-GGPSPGG Dap(DNP)KK-NH2 |  |  |  |  |  | % FE (percentage fluorescence efficiency) ([2]; strain AF293, t=6 hour): 309.39%; Mean Fold change, Infected BALF [2, 3]: 12.49; Mean Fold Change, Uninfected BALF [2, 4]: 3.05; % FE (percentage fluorescence efficiency) ([2]; strain CEA10, t=6 hour): 142.55%; Mean Fold change, Infected BALF [2, 5]: 11.00; Mean Fold Change, Uninfected BALF [2, 6]: 4.54
MeOCGly-GGPYPGG Dap(DNP)KK-NH2 |  |  |  |  |  | % FE (percentage fluorescence efficiency) [2, 7]: 203.00%; Mean Fold change, Infected BALF [2, 8]: 5.42; Mean Fold Change, Uninfected BALF [2, 9]: 1.79; % FE (percentage fluorescence efficiency) [2, 10]: 310.44%; Mean Fold change, Infected BALF [2, 11]: 14.62; Mean Fold Change, Uninfected BALF [2, 12]: 3.56
